Read-outs that look alike come from different tables or passages of the source. Square brackets hold non-standard residues; d marks the D form. Peptide text beside a SMILES is read from it. Bip = N[C@@H](Cc1ccc(-c2ccccc2)cc1)C(=O)O; αMePhe(2-F) = C[C@](N)(Cc1ccccc1F)C(=O)O; Phe(2-F) = N[C@@H](Cc1ccccc1F)C(=O)O; Aib = CC(C)(N)C(=O)O
Molecular target: T1, hGLP1 receptor (Homo sapiens, UniProt P43220)
T1 construct: expressed in transfected cells; host or cells: HEK (human embryonic kidney) cells co-expressing hGLP1 receptor and CRE-Luciferase
Assay: GLP-1 receptor agonism assay (HTRF cAMP, HEK cells co-expressing hGLP1 receptor and CRE-Luciferase)
Assay type: cell-based
Conditions: for Emax: HEK293, Table 6 potency profile; for EC50 / pEC50 / dpEC50 (contribution of Cα-methylation): 0% HSA; for decreased potency (Aib/Ala comparison): versus respective parent analog; for rescue of potency by Aib versus Ala substitution: Aib analog versus Ala analog at the same position; for decreased potency by Aib substitution: Aib-scanning, versus parent analog RXL-101; for dpEC50 (contribution of Cα-methylation): dpEC50 = pEC50 (Aib) − pEC50 (Ala) − 0.97, Aib peptide versus the Ala peptide of the same line; for decreased potency of Aib analog versus Ala analog: same position, Ala superior to Aib
Description: Human embryonic kidney cells (HEK) co-expressing the hGLP1 receptor and CRE-Luciferase construct were used to determine agonist potency in this assay. The cells were thawed briefly at 37 °C, transferred to a sterile tube, and re-suspended in complete media at 37 °C. Cells were centrifuged at 1000 rpm for 5 min and collected; the cells were then re-suspended in an assay buffer consisting of Dulbecco’s phosphate-buffered saline (DPBS, GIBCO) with 500 μM of the phosphodiesterase inhibitor 3-isobutyl-1-methylxanthine (IBMX). The assay medium had 0% serum albumin, as specified in Table 1, Table 2, Table 3 and Table 4. The optimal cell density was determined to be 1000 cells/well. Cells were added to wells in 384-well plates containing appropriate pre-prepared dilutions of compounds (test peptides or reference compound exendin-4), sealed, and incubated with CO2 for 30 min. Test peptide solutions were diluted from 10 mM stock solutions to be used in two separate runs (performed in triplicate) from a maximal concentration of 1.0 μM, with 11 concentrations tested for each peptide using serial 1:3 dilution from this maximal concentration. […] The agonist assay was a homogeneous time-resolved fluorescence (HTRF) assay (Cisbio). Following incubation of the cells for 30 min with test or reference peptides, 5 μL of the cAMP acceptor cAMP-d2, prepared previously as a working solution from frozen stock (1:20 dilution), was added to each well of the assay plate along with 5 μL of anti-cAMP antibody-cryptate working solution (diluted 1:20 from frozen stock). The wells were incubated for 1 h at room temperature, and fluorescence was then read at 665 and 615 nm with an Envision reader with a TRF laser. Data were saved and analyzed using Prism software (GraphPad). Concentration–response analysis was performed using 4-parameter logistic fits of the resulting data, and EC50 values were obtained for each test and reference compound.

[1] = Table 1, Phe6 modifications, average of two independent experiments in triplicate (RXL-3039 tested once), read-out: cAMP EC50
[2] = Table 2, Ala-scanning, >1000 nM = out of range, read-out: cAMP EC50

T1 sequence (P43220 24-463): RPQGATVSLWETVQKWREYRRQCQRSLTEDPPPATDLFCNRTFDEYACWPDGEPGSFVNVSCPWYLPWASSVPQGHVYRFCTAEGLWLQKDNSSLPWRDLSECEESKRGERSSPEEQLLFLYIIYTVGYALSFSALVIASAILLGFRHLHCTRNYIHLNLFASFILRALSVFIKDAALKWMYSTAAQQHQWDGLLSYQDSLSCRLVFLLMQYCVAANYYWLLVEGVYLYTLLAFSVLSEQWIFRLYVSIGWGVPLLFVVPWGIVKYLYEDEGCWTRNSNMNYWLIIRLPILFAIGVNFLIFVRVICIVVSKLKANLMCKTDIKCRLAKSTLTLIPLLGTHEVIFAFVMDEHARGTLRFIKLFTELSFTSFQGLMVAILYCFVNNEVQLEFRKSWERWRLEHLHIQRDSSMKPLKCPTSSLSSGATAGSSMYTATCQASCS

Row | Structure (SMILES) | Emax [%] | decreased potency by Aib substitution [fold] | dpEC50 (contribution of Cα-methylation) | also measured
1 | C[C@@H](O)[C@H](NC(=O)CNC(=O)[C@H](CCC(=O)O)NC(=O)C(C)(C)NC(=O)[C@@H](N)Cc1c[nH]cn1)C(=O)N[C@@H](Cc1cc(F)c(F)c(F)c1)C(=O)N[C@H](C(=O)N[C@@H](CO)C(=O)N[C@@H](CC(=O)O)C(=O)N[C@@H](Cc1ccc(-c2ccccc2)cc1)C(=O)N[C@@H](Cc1ccc(-c2ccccc2)cc1)C(N)=O)[C@@H](C)O [RXL-3017, His-Aib-Glu-Gly-Thr-Phe(3,4,5-F)-Thr-Ser-Asp-Bip-Bip-NH2] | 113 |  |  | EC50 [1]: 7.2 nM
2 | C[C@@H](O)[C@H](NC(=O)CNC(=O)[C@H](CCC(=O)O)NC(=O)C(C)(C)NC(=O)[C@@H](N)Cc1c[nH]cn1)C(=O)N[C@@H](Cc1ccc(-c2ccccc2)cc1)C(=O)N[C@H](C(=O)N[C@@H](CO)C(=O)N[C@@H](CC(=O)O)C(=O)N[C@@H](Cc1ccc(-c2ccccc2)cc1)C(=O)N[C@@H](Cc1ccc(-c2ccccc2)cc1)C(N)=O)[C@@H](C)O [RXL-3024, His-Aib-Glu-Gly-Thr-Bip-Thr-Ser-Asp-Bip-Bip-NH2] (H-H[Aib]EGT[Bip]TSD[Bip][Bip]-NH2) | 102 |  |  | EC50 [1]: 10.8 nM
3 | C[C@H](NC(=O)[C@H](Cc1ccccc1F)NC(=O)[C@@H](NC(=O)CNC(=O)[C@H](CCC(=O)O)NC(=O)C(C)(C)NC(=O)[C@@H](N)Cc1c[nH]cn1)[C@@H](C)O)C(=O)N[C@@H](CO)C(=O)N[C@@H](CC(=O)O)C(=O)N[C@@H](Cc1ccc(-c2ccccc2)cc1)C(=O)N[C@@H](Cc1ccc(-c2ccccc2)cc1)C(N)=O [RXL-3005, His-Aib-Glu-Gly-Thr-Phe(2-F)-Ala-Ser-Asp-Bip-Bip-NH2] (H-H[Aib]EGT[Phe(2-F)]ASD[Bip][Bip]-NH2) | 102 |  |  | EC50 [2]: 47.5 nM; EC50 (Table 4, Ala-scan peptides, read-out: pEC50 (converted)): 21.4 nM
4 | C[C@H](NC(=O)[C@H](Cc1ccc(-c2ccccc2)cc1)NC(=O)[C@H](CC(=O)O)NC(=O)[C@H](CO)NC(=O)[C@@H](NC(=O)[C@H](Cc1ccccc1F)NC(=O)[C@@H](NC(=O)CNC(=O)[C@H](CCC(=O)O)NC(=O)C(C)(C)NC(=O)[C@@H](N)Cc1c[nH]cn1)[C@@H](C)O)[C@@H](C)O)C(N)=O [RXL-3009, His-Aib-Glu-Gly-Thr-Phe(2-F)-Thr-Ser-Asp-Bip-Ala-NH2] | 43.2 |  |  | decreased potency by Ala substitution in RXL-3000 (Ala-scanning, versus RXL-3000): > 1000 fold; EC50 [2]: > 1000 nM; decreased potency (Aib/Ala comparison): 10,000 fold
5 | C[C@@H](O)[C@H](NC(=O)C(C)(C)NC(=O)[C@H](CCC(=O)O)NC(=O)C(C)(C)NC(=O)[C@@H](N)Cc1c[nH]cn1)C(=O)N[C@@](C)(Cc1ccccc1F)C(=O)N[C@H](C(=O)N[C@@H](CO)C(=O)N[C@@H](CC(=O)O)C(=O)N[C@@H](Cc1ccc(-c2ccccc2)cc1)C(=O)N[C@@H](Cc1ccc(-c2ccccc2)cc1)C(N)=O)[C@@H](C)O [RXL-3032, His-Aib-Glu-Aib-Thr-α-Me-Phe(2-F)-Thr-Ser-Asp-Bip-Bip-NH2] (H-H[Aib]E[Aib]T[αMePhe(2-F)]TSD[Bip][Bip]-NH2) | 118 | ≥ 100 | 0.37 | rescue of potency by Aib versus Ala substitution: about 10 fold; pEC50 (Table 4, Aib-scan peptides): 7.80
6 | C[C@@H](O)[C@H](NC(=O)CNC(=O)[C@H](CCC(=O)O)NC(=O)C(C)(C)NC(=O)[C@@H](N)Cc1c[nH]cn1)C(=O)NC(C)(C)C(=O)N[C@H](C(=O)N[C@@H](CO)C(=O)N[C@@H](CC(=O)O)C(=O)N[C@@H](Cc1ccc(-c2ccccc2)cc1)C(=O)N[C@@H](Cc1ccc(-c2ccccc2)cc1)C(N)=O)[C@@H](C)O [RXL-3028, His-Aib-Glu-Gly-Thr-Aib-Thr-Ser-Asp-Bip-Bip-NH2] (H-H[Aib]EGT[Aib]TSD[Bip][Bip]-NH2) | 76.1 | ≥ 100 | 0.46 | rescue of potency by Aib versus Ala substitution: more than 10 fold; EC50 (Table 3, Aib-scanning, >1000 nM = out of range, read-out: cAMP EC50): 161 nM; EC50 (Table 4, Aib-scan peptides, read-out: pEC50 (converted)): 105 nM
7 | C[C@@H](O)[C@H](NC(=O)CNC(=O)[C@H](CCC(=O)O)NC(=O)C(C)(C)NC(=O)[C@@H](N)Cc1c[nH]cn1)C(=O)N[C@@](C)(Cc1ccccc1F)C(=O)N[C@H](C(=O)N[C@@H](CO)C(=O)NC(C)(C)C(=O)N[C@@H](Cc1ccc(-c2ccccc2)cc1)C(=O)N[C@@H](Cc1ccc(-c2ccccc2)cc1)C(N)=O)[C@@H](C)O [RXL-3036, His-Aib-Glu-Gly-Thr-α-Me-Phe(2-F)-Thr-Ser-Aib-Bip-Bip-NH2] (H-H[Aib]EGT[αMePhe(2-F)]TS[Aib][Bip][Bip]-NH2) | 96.7 | ≥ 100 | −2.26 | pEC50 (Table 4, Aib-scan peptides): 7.04; decreased potency of Aib analog versus Ala analog: about fivefold
8 | C[C@@H](O)[C@H](NC(=O)CNC(=O)[C@H](CCC(=O)O)NC(=O)C(C)(C)NC(=O)[C@@H](N)Cc1c[nH]cn1)C(=O)N[C@@](C)(Cc1ccccc1F)C(=O)NC(C)(C)C(=O)N[C@@H](CO)C(=O)N[C@@H](CC(=O)O)C(=O)N[C@@H](Cc1ccc(-c2ccccc2)cc1)C(=O)N[C@@H](Cc1ccc(-c2ccccc2)cc1)C(N)=O [RXL-3034, His-Aib-Glu-Gly-Thr-α-Me-Phe(2-F)-Aib-Ser-Asp-Bip-Bip-NH2] (H-H[Aib]EGT[αMePhe(2-F)][Aib]SD[Bip][Bip]-NH2) | 106 | ≥ 100 | −1.60 | pEC50 (Table 4, Aib-scan peptides): 7.04; decreased potency of Aib analog versus Ala analog: about 10 fold
9 | C[C@@H](O)[C@H](NC(=O)CNC(=O)[C@H](CCC(=O)O)NC(=O)C(C)(C)NC(=O)[C@@H](N)Cc1c[nH]cn1)C(=O)N[C@H](Cc1ccccc1)C(=O)N[C@H](C(=O)N[C@@H](CO)C(=O)N[C@@H](CC(=O)O)C(=O)N[C@@H](Cc1ccc(-c2ccccc2)cc1)C(=O)N[C@@H](Cc1ccc(-c2ccccc2)cc1)C(N)=O)[C@@H](C)O [RXL-3022, His-Aib-Glu-Gly-Thr-D-Phe-Thr-Ser-Asp-Bip-Bip-NH2] | 101 |  |  | EC50 [1]: 23.2 nM
10 | C[C@@H](O)[C@H](NC(=O)[C@](C)(Cc1ccccc1F)NC(=O)C(C)(C)NC(=O)CNC(=O)[C@H](CCC(=O)O)NC(=O)C(C)(C)NC(=O)[C@@H](N)Cc1c[nH]cn1)C(=O)N[C@@H](CO)C(=O)N[C@@H](CC(=O)O)C(=O)N[C@@H](Cc1ccc(-c2ccccc2)cc1)C(=O)N[C@@H](Cc1ccc(-c2ccccc2)cc1)C(N)=O [RXL-3033, His-Aib-Glu-Gly-Aib-α-Me-Phe(2-F)-Thr-Ser-Asp-Bip-Bip-NH2] (H-H[Aib]EG[Aib][αMePhe(2-F)]TSD[Bip][Bip]-NH2) | 120 |  | −1.00 | 
11 | C[C@H](NC(=O)[C@H](CCC(=O)O)NC(=O)C(C)(C)NC(=O)[C@@H](N)Cc1c[nH]cn1)C(=O)N[C@H](C(=O)N[C@@H](Cc1ccccc1F)C(=O)N[C@H](C(=O)N[C@@H](CO)C(=O)N[C@@H](CC(=O)O)C(=O)N[C@@H](Cc1ccc(-c2ccccc2)cc1)C(=O)N[C@@H](Cc1ccc(-c2ccccc2)cc1)C(N)=O)[C@@H](C)O)[C@@H](C)O [RXL-3037, His-Aib-Glu-Ala-Thr-Phe(2-F)-Thr-Ser-Asp-Bip-Bip-NH2] (H-H[Aib]EAT[Phe(2-F)]TSD[Bip][Bip]-NH2) | 73.8 |  |  | EC50 [2]: 210 nM; pEC50 (Table 4, Ala-scan peptides): 6.46; decreased potency (Aib/Ala comparison): 2000 fold

Source: paper PMC11721672, “Design, Structure–Activity Relationships, and Computational Modeling Studies of a Series of α-Helix Biased, Ultra-Short Glucagon-like Peptide-1 Receptor Agonists” (Molecules, 2024)
